What follows are molecules tested on HCV 1b_Huh-Luc/Neo-ET cell line persistently expressing a bicistronic genotype 1b replicon in Huh 7 cells (assay: HCV replicon assay (luciferase readout, 72 h)). Settings: Hepatitis C virus, Huh-7, 72 h, read-out: Inhibition of HCV genotype 1b.
Type: cell-based, HCV genotype 1b
Outline: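 Huh 7 cells carrying a bicistronic genotype 1b luciferase/neo replicon received compound in triplicate the day after plating. After 72 h, replicon levels were read as Bright-Glo luciferase activity, expressed as % of control; EC50 was fitted with a four-parameter logistic and determined several times.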

`COC(=O)NC1(C(=O)N2CCC[C@H]2c2ncc(-c3ccc(C#Cc4ccc5nc([C@@H]6CCCN6C(=O)C6(NC(=O)OC)CCCC6)[nH]c5c4)cc3)[nH]2)CCCC1` [Compound 1044] and `COC(=O)N1CCC[C@H]1C(=O)N1CCC[C@H]1c1ncc(-c2ccc(C#Cc3ccc4nc([C@@H]5CCCN5C(=O)[C@@H]5CCCN5C(=O)OC)[nH]c4c3)cc2)[nH]1` [Compound 1063] fall in the same range of EC50: 10 to 999 nM for the first, 10 to 999 nM for the second.

`COC(=O)N[C@@H](C(=O)N1CCC[C@H]1c1ncc(-c2ccc(C#Cc3ccc(-c4cnc([C@@H]5CCCN5C(=O)[C@H](NC(=O)C5CCCN5C)c5ccccc5)[nH]4)cc3)cc2)[nH]1)c1ccccc1` (some centres unmarked) [Compound 203] and `COC(=O)N[C@@H](C(=O)N1CCC[C@H]1c1ncc(-c2ccc(C#Cc3ccc(-c4cnc([C@@H]5CCCN5C(=O)[C@H](NC(=O)N5CCC[C@H]5C)c5ccccc5)[nH]4)cc3)cc2)[nH]1)c1ccccc1` [Compound 262] cannot be ordered by EC50: < 1 nM for the first, < 1 nM for the second.

`COC(=O)N[C@H](C(=O)N1CCC[C@H]1c1ncc(-c2cc(C)c(C#Cc3ccc4nc([C@@H]5CCCN5C(=O)[C@@H](NC(=O)OC)C(C)C)[nH]c4c3)c(C)c2)[nH]1)C(C)C` [Compound 1060] and `COC(=O)N[C@H](C(=O)N1CCC[C@H]1c1ncc(-c2ccc(C#Cc3ccc4nc([C@@H]5CCCN5C(=O)[C@@H](NC(=O)OC)[C@@H](C)O)[nH]c4c3)cc2)[nH]1)[C@@H](C)O` [Compound 863] cannot be ordered by EC50: < 1 nM for the first, < 1 nM for the second.

`COC(=O)N[C@@H](C(=O)N1CCC[C@H]1c1ncc(-c2ccc(C#Cc3ccc(-c4cnc([C@@H]5CCCN5C(=O)[C@H](NC(=O)N5CCS(=O)(=O)CC5)c5ccccc5)[nH]4)cc3)cc2)[nH]1)c1ccccc1` [Compound 253] and `COC(=O)N[C@@H](C(=O)N1CCC[C@H]1c1ncc(-c2ccc(C#Cc3ccc(-c4cnc([C@@H]5CCCN5C(=O)[C@H](NC(=O)N5CCC(C)(O)CC5)c5ccccc5)[nH]4)cc3)cc2)[nH]1)c1ccccc1` [Compound 273] cannot be ordered by EC50: < 1 nM for the first, < 1 nM for the second.

`COC(=O)N[C@@H](C(=O)N1CCC[C@H]1c1ncc(-c2ccc(C#Cc3ccc(-c4cnc([C@@H]5CCCN5C(=O)[C@H](C(C)C)N5CCOC5=O)[nH]4)cc3)cc2)[nH]1)c1ccccc1` [Compound 1005] and `COC(=O)N[C@@H](C(=O)N1CCC[C@H]1c1ncc(-c2ccc(C#Cc3ccc(-c4cnc([C@@H]5CCCN5C(=O)[C@H]5CCCN5C)[nH]4)cc3)cc2)[nH]1)c1ccccc1` [Compound 187] cannot be ordered by EC50: < 1 nM for the first, < 1 nM for the second.

`COC(=O)N[C@@H](C(=O)N1CCC[C@H]1c1ncc(C#Cc2ccc(-c3ccc(-c4cnc([C@@H]5CCCN5C(=O)[C@H](NC(=O)OC)c5ccccc5)[nH]4)cc3)cc2)[nH]1)c1ccccc1` [Compound 750] and `COC(=O)N[C@@H](C(=O)N1CCC[C@H]1c1ncc(C#Cc2ccc(-c3ccc(-c4cnc([C@@H]5CCCN5C(=O)[C@H](NC(=O)C5CC5)c5ccccc5)[nH]4)cc3)cc2)[nH]1)c1ccccc1` [Compound 754] cannot be ordered by EC50: < 1 nM for the first, < 1 nM for the second.

Compared with `C(#Cc1ccc2nc([C@@H]3CCCN3Cc3ccccc3)[nH]c2c1)c1ccc(-c2cnc([C@@H]3CCCN3Cc3ccccc3)[nH]2)cc1` [Compound 1052], `COC(=O)N[C@H](C(=O)N1CCC[C@H]1c1ncc(-c2ccc(C#Cc3ccc4nc([C@@H]5CCCN5C(=O)[C@@H](c5ccccc5)N(C)C)[nH]c4c3)cc2)[nH]1)C(C)C` [Compound 860] is lower in EC50: > 1000 nM for the first, < 1 nM for the second.

`COC(=O)N[C@@H](C(=O)N1CCC[C@H]1c1ncc(C#Cc2ccc(C#Cc3cnc([C@@H]4CCCN4C(=O)[C@@H](c4ccccc4)N4CCCCC4)[nH]3)cc2)[nH]1)c1ccccc1` [Compound 312] and `COC(=O)N[C@@H](C(=O)N1CCC[C@H]1c1ncc(C#Cc2ccc(C#Cc3cnc([C@@H]4CCCN4C(=O)[C@H](NC(=O)OC)c4ccccc4)[nH]3)cc2)[nH]1)c1ccccc1` [Compound 304] cannot be ordered by EC50: < 1 nM for the first, < 1 nM for the second.

`COC[C@H](NC(=O)OC)C(=O)N1CCC[C@H]1c1ncc(-c2ccc(C#Cc3ccc(-c4cnc([C@@H]5CCCN5C(=O)[C@H](COC)NC(=O)OC)[nH]4)cc3)cc2)[nH]1` [Compound 976] and `COC(=O)N[C@@H](CC(C)C)C(=O)N1CCC[C@H]1c1ncc(-c2ccc(C#Cc3ccc(-c4cnc([C@@H]5CCCN5C(=O)[C@H](CC(C)C)NC(=O)OC)[nH]4)cc3)cc2)[nH]1` [Compound 961] cannot be ordered by EC50: < 1 nM for the first, < 1 nM for the second.

`O=C(N[C@@H](C(=O)N1CCC[C@H]1c1ncc(-c2ccc(C#Cc3ccc(-c4cnc([C@@H]5CCCN5C(=O)[C@H](NC(=O)N5CCC(O)CC5)c5ccccc5)[nH]4)cc3)cc2)[nH]1)c1ccccc1)N1CCC(O)CC1` [Compound 251] and `O=C(N[C@@H](C(=O)N1CCC[C@H]1c1ncc(-c2ccc(C#Cc3ccc(-c4cnc([C@@H]5CCCN5C(=O)[C@H](NC(=O)N5CC[C@@H](O)C5)c5ccccc5)[nH]4)cc3)cc2)[nH]1)c1ccccc1)N1CC[C@@H](O)C1` [Compound 252] cannot be ordered by EC50: < 1 nM for the first, < 1 nM for the second.

First: COC(=O)N[C@H](C(=O)N1CCC[C@H]1c1nc2ccc(C#Cc3ccc(-c4cnc([C@@H]5CCCN5)[nH]4)cc3)cc2[nH]1)C(C)C [Compound 1055]
Second: CCC(CC)[C@H](NC(=O)OC)C(=O)N1CCC[C@H]1c1ncc(-c2ccc(C#Cc3ccc4nc([C@@H]5CCCN5C(=O)[C@@H](NC(=O)OC)C(CC)CC)[nH]c4c3)cc2)[nH]1 [Compound 1030]
The EC50 of the first is higher: 10 to 999 nM for the first, < 1 nM for the second.

`COC(=O)N[C@@H](C(=O)N1CCC[C@H]1c1ncc(-c2ccc(C#Cc3ccc(-c4cnc([C@@H]5CCCN5C(=O)[C@H](NC(=O)[C@H]5CCCN5)c5ccccc5)[nH]4)cc3)cc2)[nH]1)c1ccccc1` [Compound 207] and `COC(=O)N[C@@H](C(=O)N1CCC[C@H]1c1ncc(-c2ccc(C#Cc3ccc(-c4cnc([C@@H]5CCCN5C(=O)[C@H](NC(=O)C5(O)CC5)c5ccccc5)[nH]4)cc3)cc2)[nH]1)c1ccccc1` [Compound 277] cannot be ordered by EC50: < 1 nM for the first, < 1 nM for the second.

`CC(=O)N[C@@H](C(=O)N1CCC[C@H]1c1ncc(C#Cc2ccc(C#Cc3cnc([C@@H]4CCCN4C(=O)[C@H](NC(C)=O)c4ccccc4)[nH]3)cc2)[nH]1)c1ccccc1` [Compound 306] and `COC(=O)N[C@@H](C(=O)N1CCC[C@H]1c1ncc(-c2ccc(C#Cc3ccc(-c4cnc([C@@H]5CCCN5C(=O)[C@H](NC(=O)N5CCC[C@H]5CO)c5ccccc5)[nH]4)cc3)cc2)[nH]1)c1ccccc1` [Compound 255] cannot be ordered by EC50: < 1 nM for the first, < 1 nM for the second.

Compared with `COC(=O)N[C@H](C(=O)N1CCC[C@H]1c1ncc(-c2ccc(C#Cc3ccc(-c4cnc([C@@H]5CCCN5C(=O)[C@@H](NC(=O)N5CCN(CCO)CC5)c5ccccc5)[nH]4)cc3)cc2)[nH]1)C(C)C` [Compound 990], `COC(=O)N[C@H](C(=O)N1CCC[C@H]1c1ncc(-c2ccc(C#Cc3ccc(-c4cnc([C@@H]5CCCN5C(=O)[C@@H](c5ccccc5)N5CCC(O)CC5)[nH]4)cc3)cc2)[nH]1)C(C)C` [Compound 956] is lower in EC50: 1 to 9.9 nM for the first, < 1 nM for the second.

`COC(=O)N[C@H](C(=O)N1CCC[C@H]1c1nc(-c2cnc3cc(C#Cc4cnc([C@@H]5CCCN5C(=O)[C@@H](NC(=O)OC)C(C)C)[nH]4)ccc3c2)c[nH]1)C(C)C` [Compound 1076] and `COC(=O)N[C@H](C(=O)N1CCC[C@H]1c1ncc(-c2ccc(C#Cc3ccc(-c4cnc([C@@H]5CCCN5C(=O)[C@@H](NC(=O)OC)C(C)C)[nH]4)c(F)c3)cc2)[nH]1)C(C)C` [Compound 1011] cannot be ordered by EC50: < 1 nM for the first, < 1 nM for the second.

`COC(=O)NC(C(=O)N[C@@H](C)c1ncc(-c2ccc(C#Cc3ccc(-c4cnc([C@@H]5CCCN5C(=O)[C@H](NC(=O)OC)c5ccccc5)[nH]4)cc3)cc2)[nH]1)c1ccccc1` (some centres unmarked) [Compound 279] and `O=C(N[C@@H](C(=O)N1CCC[C@H]1C(=O)NCc1ccc(C#Cc2ccc(-c3cnc([C@@H]4CCCN4C(=O)[C@H](NC(=O)C4CC4)c4ccccc4)[nH]3)cc2)cc1)c1ccccc1)C1CC1` [Compound 190] cannot be ordered by EC50: < 1 nM for the first, < 1 nM for the second.

Compared with `COC(=O)N[C@H](C(=O)N1CCC[C@H]1c1ncc(-c2ccc(C#Cc3ccc(-c4cnc([C@@H]5CCCN5C(=O)[C@@H](Nc5cccnc5)C(C)C)[nH]4)cc3)cc2)[nH]1)C(C)C` [Compound 995], `CC(C)[C@@H](NC(=O)C1CC1)C(=O)N1CCC[C@H]1c1ncc(-c2ccc(C#Cc3ccc(-c4cnc([C@@H]5CCCN5C(=O)[C@H](NC(=O)C5CC5)C(C)C)[nH]4)cc3)cc2)[nH]1` [Compound 155] is higher in EC50: < 1 nM for the first, 1 to 9.9 nM for the second. The first is the more potent here.

Same assay, conditions: Hepatitis C virus, Huh-7, read-out: Inhibition of HCV genotype 1b

`CCN(CC)C(=O)c1cc(-c2cnc([C@@H]3CCCN3C(=O)[C@@H](NC(=O)OC)C(C)C)[nH]2)ccc1C#Cc1ccc(-c2cnc([C@@H]3CCCN3C(=O)[C@@H](NC(=O)OC)C(C)C)[nH]2)cc1` [Compound 1209] and `COC(=O)N[C@H](C(=O)N1CCC[C@H]1c1ncc(-c2ccc(C#Cc3ccc4nc([C@@H]5CCCN5C(=O)[C@@H](NC(=O)OC)C(C)C)[nH]c4c3)cc2F)[nH]1)C(C)C` [Compound 1223] cannot be ordered by EC50: < 1 nM for the first, < 1 nM for the second.

`COC(=O)N[C@@H](C(=O)N1CCN(C(C)=O)C[C@H]1c1ncc(-c2ccc(C#Cc3ccc4nc([C@@H]5CCCN5C(=O)[C@H](NC(=O)OC)c5ccccc5)[nH]c4c3)cc2)[nH]1)c1ccccc1` [Compound 1233] and `COC(=O)N[C@@H](C(=O)N1CCC[C@H]1c1ncc(-c2ccc(C#Cc3ccc(-c4cnc([C@@H]5CCCN5C(=O)[C@H](NC(=O)OC)c5ccccc5)[nH]4)cc3C(=O)OC)cc2)[nH]1)c1ccccc1` [Compound 1201] cannot be ordered by EC50: < 1 nM for the first, < 1 nM for the second.

`COC(=O)N[C@H](C(=O)N1CCC[C@H]1c1nc2ccc(C#Cc3ccc4c(ccc5nc([C@@H]6CCCN6C(=O)[C@@H](NC(=O)OC)C6CCOCC6)[nH]c54)c3)cc2[nH]1)C(C)C` [Compound 1287] and `COC(=O)N[C@H](C(=O)N1CCC[C@H]1c1nc2ccc3cc(C#Cc4ccc5nc([C@@H]6CCCN6C(=O)[C@H](NC(=O)OC)c6ccccc6)[nH]c5c4)ccc3c2[nH]1)C(C)C` [Compound 1275] cannot be ordered by EC50: < 1 nM for the first, < 1 nM for the second.

For `COC(=O)N[C@H](C(=O)N1CCC[C@H]1c1nc(C(F)(F)F)c(C#Cc2ccc3cc(-c4cnc([C@@H]5CCCN5C(=O)[C@@H](NC(=O)OC)[C@@H](C)OC)[nH]4)ccc3c2)[nH]1)C1CCCC1` [Compound 1263], the EC50 was < 1 nM.

Reference: US20130296311A1, “INHIBITORS OF HCV NS5A” (PRESIDIO PHARMACEUTICALS, INC., priority 2010, published 2013)
